Results from paper PMC3914206.

Assays:
Format in all cases: binding
panel of 442 kinases [1] = target: T1, panel of 442 kinases (Homo sapiens, UniProt P00533, G719C); conditions: Compound Concentration 10 µM
T1 construct: purchased KINOMEscan
From the text: (§1) We assessed the selectivity of members of this scaffold using the KINOMEscan methodology across a near comprehensive panel of 442 kinases [[18,27]].

panel of 442 kinases [2] = target: T2, panel of 442 kinases (Homo sapiens, UniProt O96013); conditions: Compound Concentration 10 µM
T2 construct: purchased KINOMEscan
T2 sequence (O96013 whole entry): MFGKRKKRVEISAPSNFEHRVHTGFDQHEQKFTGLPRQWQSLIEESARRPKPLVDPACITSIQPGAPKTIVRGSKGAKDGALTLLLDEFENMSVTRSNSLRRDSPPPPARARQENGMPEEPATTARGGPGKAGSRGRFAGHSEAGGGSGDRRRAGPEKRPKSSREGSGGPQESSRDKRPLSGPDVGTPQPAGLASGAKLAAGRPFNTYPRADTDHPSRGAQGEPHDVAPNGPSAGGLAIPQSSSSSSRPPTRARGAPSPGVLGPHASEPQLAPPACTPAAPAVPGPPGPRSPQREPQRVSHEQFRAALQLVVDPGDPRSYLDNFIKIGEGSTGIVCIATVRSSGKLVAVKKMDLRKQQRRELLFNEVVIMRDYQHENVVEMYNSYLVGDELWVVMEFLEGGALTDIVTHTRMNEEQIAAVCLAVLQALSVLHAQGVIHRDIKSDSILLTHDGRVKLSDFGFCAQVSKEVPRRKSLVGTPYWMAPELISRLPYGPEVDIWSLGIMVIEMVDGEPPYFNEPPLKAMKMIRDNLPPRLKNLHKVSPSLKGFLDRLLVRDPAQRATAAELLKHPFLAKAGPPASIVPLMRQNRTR
From the text: as §1

panel of 442 kinases [3] = target: T3, panel of 442 kinases (Homo sapiens, UniProt Q9Y5S2); conditions: Compound Concentration 10 µM
T3 construct: purchased KINOMEscan
T3 sequence (Q9Y5S2 whole entry): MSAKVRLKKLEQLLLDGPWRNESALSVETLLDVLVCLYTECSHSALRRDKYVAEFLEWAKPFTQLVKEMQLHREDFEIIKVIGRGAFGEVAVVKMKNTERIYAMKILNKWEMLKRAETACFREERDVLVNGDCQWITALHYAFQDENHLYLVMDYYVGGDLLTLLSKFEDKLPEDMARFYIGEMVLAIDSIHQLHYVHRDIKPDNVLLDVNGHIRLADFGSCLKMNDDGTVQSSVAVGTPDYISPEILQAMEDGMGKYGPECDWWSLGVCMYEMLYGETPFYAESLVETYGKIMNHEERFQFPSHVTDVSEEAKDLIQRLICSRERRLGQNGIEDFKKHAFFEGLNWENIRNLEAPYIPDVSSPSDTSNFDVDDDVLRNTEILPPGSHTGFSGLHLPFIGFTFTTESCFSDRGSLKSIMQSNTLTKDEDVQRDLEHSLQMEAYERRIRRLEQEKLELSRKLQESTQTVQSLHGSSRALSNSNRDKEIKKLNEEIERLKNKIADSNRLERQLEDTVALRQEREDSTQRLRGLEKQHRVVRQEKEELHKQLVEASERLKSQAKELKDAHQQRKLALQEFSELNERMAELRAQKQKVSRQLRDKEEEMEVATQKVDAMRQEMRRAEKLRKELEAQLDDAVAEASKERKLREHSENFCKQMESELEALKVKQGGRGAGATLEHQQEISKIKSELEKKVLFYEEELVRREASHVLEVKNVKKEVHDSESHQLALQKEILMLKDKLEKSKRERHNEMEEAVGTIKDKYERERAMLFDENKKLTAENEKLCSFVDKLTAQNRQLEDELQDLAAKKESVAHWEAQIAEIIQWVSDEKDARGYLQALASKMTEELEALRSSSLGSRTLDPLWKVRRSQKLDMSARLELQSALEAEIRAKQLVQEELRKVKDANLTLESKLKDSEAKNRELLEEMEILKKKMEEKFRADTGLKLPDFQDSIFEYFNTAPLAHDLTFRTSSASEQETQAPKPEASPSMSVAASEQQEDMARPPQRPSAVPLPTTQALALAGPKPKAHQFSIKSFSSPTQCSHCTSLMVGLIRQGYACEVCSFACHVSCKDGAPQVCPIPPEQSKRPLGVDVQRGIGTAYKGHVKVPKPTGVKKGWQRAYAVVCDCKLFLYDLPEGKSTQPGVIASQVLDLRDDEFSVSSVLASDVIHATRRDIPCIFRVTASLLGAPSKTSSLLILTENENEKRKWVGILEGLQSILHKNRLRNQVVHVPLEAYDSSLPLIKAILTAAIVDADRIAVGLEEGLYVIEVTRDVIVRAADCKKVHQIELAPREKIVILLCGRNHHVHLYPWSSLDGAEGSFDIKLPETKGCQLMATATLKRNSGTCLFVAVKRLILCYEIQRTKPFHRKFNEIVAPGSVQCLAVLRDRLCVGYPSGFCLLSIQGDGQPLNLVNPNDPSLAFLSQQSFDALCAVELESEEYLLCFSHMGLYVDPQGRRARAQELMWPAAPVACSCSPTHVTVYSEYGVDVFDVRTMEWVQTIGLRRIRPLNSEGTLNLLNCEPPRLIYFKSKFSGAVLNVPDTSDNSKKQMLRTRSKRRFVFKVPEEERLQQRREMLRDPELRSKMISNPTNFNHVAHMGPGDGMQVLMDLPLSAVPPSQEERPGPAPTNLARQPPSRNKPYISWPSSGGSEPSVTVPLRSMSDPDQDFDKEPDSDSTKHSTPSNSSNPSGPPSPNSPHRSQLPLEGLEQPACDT
From the text: as §1

panel of 442 kinases [4] = target: T4, panel of 442 kinases (Homo sapiens, UniProt P57059); conditions: kinase SIK; compound concentration 10 µM
T4 construct: purchased KINOMEscan
T4 sequence (P57059 whole entry): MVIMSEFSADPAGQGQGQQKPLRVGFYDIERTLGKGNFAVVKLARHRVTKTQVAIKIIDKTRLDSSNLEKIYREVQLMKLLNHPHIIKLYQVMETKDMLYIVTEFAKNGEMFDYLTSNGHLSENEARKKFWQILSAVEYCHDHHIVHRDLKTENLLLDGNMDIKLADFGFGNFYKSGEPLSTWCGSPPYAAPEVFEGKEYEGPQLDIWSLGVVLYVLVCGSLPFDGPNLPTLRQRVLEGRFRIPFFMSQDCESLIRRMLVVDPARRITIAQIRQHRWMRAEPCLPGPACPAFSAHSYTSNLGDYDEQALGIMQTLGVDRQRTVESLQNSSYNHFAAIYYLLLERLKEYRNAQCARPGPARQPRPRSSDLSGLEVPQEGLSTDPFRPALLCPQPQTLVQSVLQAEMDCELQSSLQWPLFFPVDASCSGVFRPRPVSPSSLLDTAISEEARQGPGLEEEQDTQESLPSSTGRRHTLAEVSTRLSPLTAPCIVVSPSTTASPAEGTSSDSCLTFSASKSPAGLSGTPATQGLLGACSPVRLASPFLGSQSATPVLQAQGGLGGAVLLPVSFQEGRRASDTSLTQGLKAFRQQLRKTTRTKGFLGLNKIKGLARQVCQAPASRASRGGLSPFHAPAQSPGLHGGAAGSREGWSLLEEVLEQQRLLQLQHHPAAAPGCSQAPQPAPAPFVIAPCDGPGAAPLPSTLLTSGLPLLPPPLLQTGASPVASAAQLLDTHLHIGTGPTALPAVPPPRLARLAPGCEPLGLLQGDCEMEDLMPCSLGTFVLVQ
From the text: as §1

T1 sequence (P00533 25-1210 G719C): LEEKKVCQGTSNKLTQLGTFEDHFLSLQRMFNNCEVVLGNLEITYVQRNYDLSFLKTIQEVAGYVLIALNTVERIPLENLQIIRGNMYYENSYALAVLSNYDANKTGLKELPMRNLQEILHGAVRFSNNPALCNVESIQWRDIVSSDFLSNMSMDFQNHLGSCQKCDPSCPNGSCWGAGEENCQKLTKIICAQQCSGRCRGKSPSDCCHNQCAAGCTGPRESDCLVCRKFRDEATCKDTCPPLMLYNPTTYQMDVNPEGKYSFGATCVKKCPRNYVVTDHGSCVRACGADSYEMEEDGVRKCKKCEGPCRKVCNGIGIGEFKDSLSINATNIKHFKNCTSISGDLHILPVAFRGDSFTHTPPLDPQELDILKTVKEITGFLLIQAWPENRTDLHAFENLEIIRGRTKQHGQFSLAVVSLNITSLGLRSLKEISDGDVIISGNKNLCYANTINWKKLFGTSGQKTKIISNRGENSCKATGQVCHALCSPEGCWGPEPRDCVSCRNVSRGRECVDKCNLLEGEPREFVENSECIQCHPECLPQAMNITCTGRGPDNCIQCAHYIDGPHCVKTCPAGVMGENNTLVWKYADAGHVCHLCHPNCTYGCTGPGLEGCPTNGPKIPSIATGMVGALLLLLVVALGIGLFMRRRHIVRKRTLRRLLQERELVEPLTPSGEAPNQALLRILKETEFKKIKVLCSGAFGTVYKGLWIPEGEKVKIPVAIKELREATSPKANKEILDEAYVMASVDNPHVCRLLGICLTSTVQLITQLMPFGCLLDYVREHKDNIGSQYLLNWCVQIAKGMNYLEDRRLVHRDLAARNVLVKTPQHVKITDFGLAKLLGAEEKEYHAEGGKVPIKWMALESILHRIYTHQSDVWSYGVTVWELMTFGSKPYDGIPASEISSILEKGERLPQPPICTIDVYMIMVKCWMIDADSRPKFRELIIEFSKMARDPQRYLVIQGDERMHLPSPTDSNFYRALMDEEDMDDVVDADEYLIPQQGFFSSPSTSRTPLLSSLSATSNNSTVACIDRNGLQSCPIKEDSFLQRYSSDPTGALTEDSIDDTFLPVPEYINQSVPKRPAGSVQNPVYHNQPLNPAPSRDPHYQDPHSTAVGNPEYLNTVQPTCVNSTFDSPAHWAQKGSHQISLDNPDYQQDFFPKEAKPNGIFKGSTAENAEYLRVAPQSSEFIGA

SMILES	KINOMEscan: EGFR(G719C) (panel of 442 kinases [1])	KINOMEscan: PAK4 (panel of 442 kinases [2])	KINOMEscan: MRCKB (panel of 442 kinases [3])	% Ctrl, SIK (panel of 442 kinases [4]) [% Ctrl]
CCOc1cc(C(=O)N2CCC(N3CCN(C)CC3)CC2)ccc1Nc1ncc2c(n1)N(C1CCCC1)c1ccccc1C(=O)N2C [Compound 26]	100	100	100	100
COc1cc(C(=O)N2CCC(N3CCN(C)CC3)CC2)ccc1Nc1ncc2c(n1)N(C1CCCC1)c1ccccc1C(=O)N2C [Compound 25, 11-cyclopentyl-2-((2-methoxy-4-(4-(4-methylpiperazin-1-yl)piperidine-1-carbonyl)phenyl)amino)-5-methyl-5H-benzo[e]pyrimido[5,4-b][1,4]diazepin-6(11H)-one]	71	91	100	98
COc1cc(C(=O)N2CCC(N3CCN(C)CC3)CC2)ccc1Nc1ncc2c(n1)N1CCc3cccc(c31)C(=O)N2C [Compound 24]	66	–	–	90
COc1cc(C(=O)N2CCC(N3CCN(C)CC3)CC2)ccc1Nc1ncc2c(n1)N(C)c1ccccc1C(=O)N2C [15 (LRRK2-IN-1)]	100	94	100	77
